Measurements reported in patent US9708628B2, “Cationic lipid having improved intracellular kinetics” (NOF CORPORATION, priority 2011, dated 2017).

How the values were obtained:
Format in all cases: cell-based
HT1080 cells [1] = test: Inhibitory effect of GA (ginkgolic acid) on gene expression; details: 0, 25, 50, 100 μM GA
Experimental: (§1) MENDs of B-2-4 (Example 4), B-2 (Example 1) were prepared according to [Experimental Example 16], [Experimental Example 1] (1), (2). For the preparation, PEG2000-DMG was used as PEG lipid, and MEND solutions corresponding to 0.55 mM of the lipid concentration were prepared.
(§2) HT1080 cells were plated on a 3.5 cm cell culture dish at 4×10^4 cells/2 mL/dish 24 hr before, various MENDs were diluted with DMEM (FBS 10%+, Phenol red free) containing a final concentration of 200 μM of D-luciferin potassium and 0, 25, 50, 100 μM of GA (Calbiochem) to achieve 1.6 μg/2 mL/dish based on the pDNA amount and transfection was performed. According to the Kronos Dio package insert, the luminescence amount was measured for 2 min every 20 min and taken as the luciferase activity (RLU/2 min).

HT1080 cells [2] = test: Intracellular uptake pathway: influence of sucrose, amiloride, filipin on uptake amount; details: 0.3M sucrose, 1 mM amiloride, 3 hr
Experimental: as §1, with “1] (1), (2),” for “16],”, “18].” for “1] (1), (2).”, “prepared. pDNA was labeled with fluorescence according to the method described in [Experimental Example 15] (2).” for “prepared.”
HT1080 cells were plated on a 6-well plate at 2×10^5 cells/2 mL/well 24 hr before. The medium was changed to DMEM (FBS+) containing filipin at a final concentration of […] 30 min before transfection. The medium was changed to DMEM (FBS+) containing a final concentration of 0.3M sucrose, and 1 mM amiloride 15 min before transfection. For transfection, various MENDs were added to the dish at 1.6 μg/2 mL/dish based on the pDNA amount. 3 hr after the transfection, the intracellular pDNA amount was measured by the method described in [Experimental Example 19] (1).

HT1080 cells [3] = test: Time-course evaluation of gene expression using Kronos Dio (luciferase, RLU/2 min); details: pDNA 1.6 μg/2 mL/dish
Experimental: MENDs of B-2-4 (Example 4), B-2 (Example 1) were prepared according to [Experimental Example 1] (1), (2), and [Experimental Example 18]. For the preparation, PEG2000-DMG was used as PEG lipid, and MEND solutions corresponding to 0.55 mM of the lipid concentration were prepared. For cationic MEND, lipids having a composition of DOTAP (Comparative Example 3):DOPE:Chol:=3:4:3 were used, and the cationic MEND was prepared according to the method described in [Experimental Example 1] (3).
as §2, with “(FES” for “(FBS”, “potassium” for “potassium and 0, 25, 50, 100 μM of GA (Calbiochem)”

HT1080 cells [4] = test: Intracellular uptake pathway: influence of sucrose, amiloride, filipin on gene expression activity; details: 0.3M sucrose, 1.5 mM amiloride
Experimental: Using compositions of B-2-4 (Example 4):DOPE:Chol=3:3:4, B-2 (Example 1):SOPE:Chol=5:3:2 as lipid, MENDs were prepared according to [Experimental Example 1] (1), (2). For the preparation, PEG2000-DMG was used as PEG lipid, and MEND solutions corresponding to 0.55 mM of the lipid concentration were prepared.
HT1080 cells were plated on a 24-well plate at 4×10^4 cells/500 μL/well 24 hr before. The medium was changed to DMEM (FBS+) containing filipin at a final concentration of […] 30 min before transfection. The medium was changed to DMEM (FBS+) containing a final concentration of 0.3M sucrose, and 1.5 mM amiloride 15 min before transfection. For transfection, various MENDs were added to the well at 0.8 μg/500 μL/well based on the pDNA amount. Thereafter, the gene expression activity was evaluated by the method described in [Experimental Example 4] (2).

HT1080 cells [5] = test: Decapsulation efficiency over time (3, 6, 9, 12 hr); details: 3, 6, 9, 12 hr after transfection
Text: For MEND preparation, Rhodamine-labeled pDNA prepared by the method of [Experimental Example 1] (4) was used. For preparation of MEND encapsulating the rhodamine-labeled pDNA, 50% of the pDNA solution described in [Experimental Example 1] (1) was replaced by the rhodamine-labeled pDNA. In addition, the lipid constituting the MEND was labeled with fluorescence by the method described in [Experimental Example 1] (3). MENDs having a composition of B-2-4 […]:DOPE:Chol=3:3:4, B-2 […]:SOPE:Chol=5:3:2 were prepared by the method described in [Experimental Example 1] (2). For the preparation, PEG2000-DMG was used as PEG lipid, and MEND solutions corresponding to 0.55 mM of the lipid concentration were prepared.
HT1080 cells were plated on a glass bottom dish at 5×10^4 cells/2 mL/dish 24 hr before. MEND was diluted with DMEM (FBS 10%+) to achieve pDNA 1.6 μg/2 mL and transfected into cells. 3, 6, 9, 12 hr later, the cells were washed twice with heparin solution (20 units/mL, 2 mL), Krebs buffer (1 mL) was added, and the images at 3, 6, 9, 12 hr after the transfection were obtained by a confocal laser scan microscope.
Rhodamine-labeled pDNA and lipid membrane of MEND were shown in pseudo colors of red and green, respectively. The decapsulation efficiency was calculated according to the following formula.

SMILES	inhibitory effect of GA on gene expression activity (HT1080 cells [1])	intracellular uptake with sucrose, amiloride, filipin (HT1080 cells [2])	gene expression activity (luciferase, RLU/2 min), time course (HT1080 cells [3])	gene expression with sucrose, amiloride, filipin (HT1080 cells [4])	decapsulation efficiency (HT1080 cells [5])
CC1=C(/C=C/C(C)=C/C=C/C(C)=C/C(=O)OCCCN(C)CCSSCCN(C)CCCOC(=O)/C=C(C)/C=C/C=C(C)/C=C/C2=C(C)CCCC2(C)C)C(C)(C)CCC1 [Example B-2-4]	higher inhibitory effect on B-2-4 than on B-2	sucrose- and amiloride-sensitive	significantly higher than that of MENDs formed from B-2-1 and DOTAP	inhibited by amiloride	gradual decapsulation with the passage of time
CCCCCCCCCCCCCC(=O)OCCCN(C)CCSSCCN(C)CCCOC(=O)CCCCCCCCCCCCC [Example B-2]	higher inhibitory effect on B-2-4 than on B-2	sucrose- and amiloride-sensitive	equivalent to that of DOTAP	inhibited by sucrose and amiloride	good decapsulation from early stages
